Measured values reported in patent US20080045498A1, “[…] INHIBITORS” (Genelabs Technologies, Inc., priority 2006, published 2008).

test system: HCV RNA dependent RNA polymerase; assay: HCV replicon assay (luciferase, Huh-lucubineo-ET cells); format: cell-based; conditions: Hepatitis C virus; tested at 25 μM; ET (Huh-lucubineo-ET) replicon cell line; luciferase activity measured 48-72 hours after compound addition; relative to no compound control
Procedure: A cell line, ET (Huh-lucubineo-ET) was used for screening of compounds for inhibiting HCV RNA dependent RNA polymerase. The ET cell line was stably transfected with RNA transcripts harboring a I389luc-ubi-neo/NS3-3′/ET; replicon with firefly luciferase-ubiquitin-neomycin phosphotransferase fusion protein and EMCV-IRES driven NS3-5B polyprotein containing the cell culture adaptive mutations (E1202G; T1280I; K1846T) (Krieger at al, 2001 and unpublished). The ET cells were grown in DMEM (Dulbeco's Modified Eagle's Medium), supplemented with 10% fetal calf serum, 2 mM Glutamine, Penicillin (100 IU/mL)/Streptomycin (100 μg/mL), 1× nonessential amino acids, and 250 μg/mL G418 (“Geneticin”). Reagents are all available through Life Technologies (Bethesda, Md.). The cells were plated at 0.5−1.0×10^4 cells/well in the 96 well plates and incubated for 24 hrs before adding test compound. The compounds were added to the cells to achieve a final concentration of 0.1 nM to 50 μM and a final DMSO (dimethylsulfoxide) concentration of 0.5%. Luciferase activity was measured 48-72 hours later by adding a lysis buffer and the substrate (Catalog number Glo-lysis buffer E2661 and Bright-Glo luciferase system E2620 Promega, Madison, Wis.). Cells should not be too confluent during the assay. Percent inhibition of replication data is plotted relative to no compound control. Under the same condition, cytotoxicity of the compounds were determined using cell proliferation reagent, WST-1 (Roche, Germany). The compounds showing antiviral activities, but no significant cytotoxicities were chosen to determine EC50 and TC50 the effective concentration and toxic concentration at which 50% of the maximum inhibition is observed. For these determinations, a 10 point, 2-fold serial dilution for each compound was used, which spans a concentration range of 1000 fold. EC50 and similarly TC50 values were calculated by fitting % inhibition at each concentration to the following equation: % inhibition=100%/[(EC50/[I])b+1] where b is Hill's coefficient.

SMILES | inhibition at 25 µM [%]
O=C(O)c1ccc2c(C3CCCCC3)c3n(c2c1)CCCCn1c-3cc2ccccc21 [Compound 228] | 97
COc1ccc2c(c1)cc1n2CCCCn2c-1c(C1CCCCC1)c1ccc(C(=O)O)cc12 [Compound 233] | 96
O=C(O)c1ccc2c(C3CCCCC3)c3n(c2c1)CCCCn1c-3cc2cc(O)ccc21 [Compound 234] | 99
O=C(O)c1ccc2c(C3CCCCC3)c3n(c2c1)CCCCn1c-3cc2cc(OCc3ccccc3)ccc21 [Compound 231] | 96
O=C(O)c1ccc2c(C3CCCCC3)c3n(c2c1)CCCCn1c-3cc2ccc(O)cc21 [Compound 236] | 100
O=C(O)c1ccc2c(C3CCCCC3)c3n(c2c1)CCCCn1c-3cc2c(OCc3ccccc3)cccc21 [Compound 230] | 75
O=C(O)c1ccc2c(C3CCCCC3)c3n(c2c1)CCCCn1c-3cc2ccc(OCc3ccccc3)cc21 [Compound 232] | 91
COc1ccc2cc3n(c2c1)CCCCn1c-3c(C2CCCCC2)c2ccc(C(=O)O)cc21 [Compound 235] | 99
O=C(O)c1ccc2c(C3CCCCC3)c3n(c2c1)CCCn1c-3nc2ccccc21 [Compound 225] | 7
O=C(O)c1ccc2c(C3CCCCC3)c3n(c2c1)CCCn1c-3cc2ccccc21 [Compound 227] | 94
Cc1nc(C)c(-c2ccc3c4c(ccc3n2)-c2c(C3CCCCC3)c3ccc(C(=O)O)cc3n2CC(=O)N4)s1 [Compound 237] | 100
O=C(O)c1ccc2c(C3CCCCC3)c3n(c2c1)CCCCn1c-3nc2ccccc21 [Compound 226] | 23
O=C(O)c1ccc2c(C3CCCCC3)c3n(c2c1)CCCCCn1c-3cc2ccccc21 [Compound 229] | 86
